Experimental data as given in US11660303B2, “2-phenylimidazo[4,5-b]pyridin-7-amine derivates useful as inhibitors of mammalian tyrosine kinase ROR1 activity” (KANCERA AB, priority 2016, dated 2023).

Experiments:
Format in all cases: cell-based
RC-KB = assay: MTT cytotoxicity assay, RC-KB; conditions: Diffuse large B-cell lymphoma (DLBCL), incubation 48 h
Description: (§1) The MTT assay (Sigma-Aldrich) was used to measure cytotoxic capability of the ROR1 tyrosine kinase inhibitors (ROR1-TKI). Briefly, 2×10^4 cancer cells were incubated in triplicates in 200 μL of RPMI-1640 containing 10% FCS in 96 well plates. ROR1-TKI (dissolved in DMSO), were added to the cells. Cells treated with DMSO were used as negative control. Cells were incubated for 48, 72 or 96 h. An amount of 20 μL MTT solution was added and the cell suspension was incubated for 4 h at 37 degrees C. The reaction was stopped by adding 100 μL MTT solvent (10% SDS in 0.01 M HCl) and was incubated for further 2-4 h. The plate was then read by a microplate reader at 570 nm.
(§2) Results, in terms of IC50 (μM), are shown in Table 4 for a representative compound of the invention, viz. Example 172.

SUDHL4 = assay: MTT cytotoxicity assay, SUDHL4; conditions: Homo sapiens, SU-DHL-4, SUDHL4, Diffuse large B-cell lymphoma (DLBCL), incubation 48 h
Description: as §1, §2

MS = assay: MTT cytotoxicity assay, MS; conditions: Diffuse large B-cell lymphoma (DLBCL), incubation 48 h
Description: as §1, §2

HDLM2 = assay: Flow cytometry Annexin V/PI apoptosis assay, HDLM2; conditions: Homo sapiens, HDLM-2, HDLM2, Hodgkin’s Lymphoma (HL), incubation 48 h
Description: (§3) Flow Cytometry Annexin V/PI Apoptosis Assay
(§4) An amount of 1 ml (10^5 cells/mL) of cells were seeded in each well of 6-well plates with and without compounds for 48 h. Cells were collected, washed with PBS, suspended in 100 μL of Annexin-V binding buffer (BD Biosciences) containing FITC-conjugated Annexin-V and PI (BD Biosciences) and incubated at room temperature in the dark for 20 min. After 20 min of incubation, 150 μL Annexin-V binding buffer was added. Viable cells were identified as the double negative Annexin-V and PI population. Samples were analyzed by a FACS Canto II Flow-cytometer (BD Biosciences).
as §2

MDA-V [1] = assay: MTT cytotoxicity assay, MDA-V; conditions: Hodgkin’s Lymphoma (HL), incubation 48 h
Description: as §1, §2

MDA-V [2] = assay: Flow cytometry Annexin V/PI apoptosis assay, MDA-V; conditions: Hodgkin’s Lymphoma (HL), incubation 48 h
Description: as §3, §4, §2

H146 = assay: Alamar Blue cell viability assay, H146; conditions: Homo sapiens, NCI-H146; H146, Small cell lung cancer, alamarBlue, incubation 72 h
Description: (§5) Alamar Blue Cell Viability Assay
(§6) Cells were plated 12 hours prior to start of drug treatment, which lasted for 72 hours for all cytotoxicity experiments. Cell viability was estimated by alamarBlue™ Cell Viability Reagent (ThermoFisher, Waltham, Mass.) per manufacturer's instructions.
as §2

H187 = assay: Alamar Blue cell viability assay, H187; conditions: Homo sapiens, NCI-H187; H187, Small cell lung cancer, alamarBlue, incubation 72 h
Description: as §5, §6, §2

H209 = assay: Alamar Blue cell viability assay, H209; conditions: Homo sapiens, NCI-H209; H209, Small cell lung cancer, alamarBlue, incubation 72 h
Description: as §5, §6, §2

H1417 = assay: Alamar Blue cell viability assay, H1417; conditions: Homo sapiens, NCI-H1417; H1417, Small cell lung cancer, alamarBlue, incubation 72 h
Description: as §5, §6, §2

H1975 = assay: MTT cytotoxicity assay, H1975; conditions: Homo sapiens, NCI-H1975, H1975, Non-small cell lung cancer, incubation 72 h
Description: as §1, §2

H23 = assay: MTT cytotoxicity assay, H23; conditions: Homo sapiens, NCI-H23, H23, Non-small cell lung cancer, incubation 72 h
Description: as §1, §2

SEM cells = assay: MTT cytotoxicity assay, SEM; conditions: B-cell acute lymphoblastic leukemia (B-ALL), incubation 48 h
Description: as §1, §2

Reh [3] = assay: MTT cytotoxicity assay, Reh; conditions: Homo sapiens, Non-T-cell non-B-cell-acute lymphoblastic leukemia, incubation 48 h
Description: as §1, §2

Reh [4] = assay: Flow cytometry Annexin V/PI apoptosis assay, Reh; conditions: Homo sapiens, Non-T-cell non-B-cell-acute lymphoblastic leukemia, incubation 48 h
Description: as §3, §4, §2

KE37 [5] = assay: MTT cytotoxicity assay, KE37; conditions: Homo sapiens, KE-37, KE37, T-cell acute lymphoblastic leukemia (T-ALL), incubation 48 h
Description: as §1, §2

KE37 [6] = assay: Flow cytometry Annexin V/PI apoptosis assay, KE37; conditions: Homo sapiens, KE-37, KE37, T-cell acute lymphoblastic leukemia (T-ALL), incubation 48 h
Description: as §3, §4, §2

HPB = assay: Flow cytometry Annexin V/PI apoptosis assay, HPB; conditions: T-cell acute lymphoblastic leukemia (T-ALL), incubation 48 h
Description: as §3, §4, §2

SKOV3 [7] = assay: MTT cytotoxicity assay, SKOV3; conditions: Homo sapiens, SK-OV-3, SKOV3, Ovarian cancer (OC), incubation 48 h
Description: as §1, §2

SKOV3 [8] = assay: Flow cytometry Annexin V/PI apoptosis assay, SKOV3; conditions: Homo sapiens, SK-OV-3, SKOV3, Ovarian cancer (OC), incubation 48 h
Description: as §3, §4, §2

Caov3 [9] = assay: MTT cytotoxicity assay, Caov3; conditions: Homo sapiens, Caov-3, Caov3, Ovarian cancer (OC), incubation 48 h
Description: as §1, §2

Caov3 [10] = assay: Flow cytometry Annexin V/PI apoptosis assay, Caov3; conditions: Homo sapiens, Caov-3, Caov3, Ovarian cancer (OC), incubation 48 h
Description: as §3, §4, §2

A2780 [11] = assay: MTT cytotoxicity assay, A2780; conditions: Homo sapiens, A2780, Ovarian cancer (OC), incubation 48 h
Description: as §1, §2

A2780 [12] = assay: Flow cytometry Annexin V/PI apoptosis assay, A2780; conditions: Homo sapiens, A2780, Ovarian cancer (OC), incubation 48 h
Description: as §3, §4, §2

Z138 = assay: MTT cytotoxicity assay, Z138; conditions: Homo sapiens, Z-138, Z138, Mantle Cell Lymphoma (MCL), incubation 96 h
Description: as §1, §2

JeKo1 = assay: MTT cytotoxicity assay, JeKo1; conditions: Homo sapiens, JeKo-1, JeKo1, Mantle Cell Lymphoma (MCL), incubation 96 h
Description: as §1, §2

JVM2 = assay: MTT cytotoxicity assay, JVM2; conditions: Homo sapiens, JVM-2, JVM2, Mantle Cell Lymphoma (MCL), incubation 96 h
Description: as §1, §2

Kelly = assay: MTT cytotoxicity assay, Kelly; conditions: Neuroblastoma, incubation 48 h
Description: as §1, §2

232-B4 = assay: MTT cytotoxicity assay, 232-B4; conditions: 232-B4, CLL cell line, ExPASy Accession No: CVCL_Y436, MTT, incubation 48 h
Description: as §1, §2

EHEB = assay: MTT cytotoxicity assay, EHEB; conditions: CLL cell line, DSMZ bank, (ACC 67), incubation 48 h
Description: as §1, §2

In the case of `CCOCCN1CCN(c2ccc(-c3nc4c(NC5CCN(CC)CC5)c(Br)cnc4[nH]3)cc2)CC1` [Example 172, 6-Bromo-2-{4-[4-(2-ethoxyethyl)piperazin-1-yl]phenyl}-N-(1-ethylpiperidin-4-yl)-3H-imidazo[4,5-b]pyridin-7-amine], the IC50 (RC-KB) is reported as 100 nM, the IC50 (SUDHL4) is reported as 50 nM and the IC50 (MS) is reported as 100 nM. The IC50 (HDLM2) was 100 nM, the IC50 (MDA-V [1]) was 50 nM and the IC50 (MDA-V [2]) was 100 nM. For the same compound, the IC50 (H146) was 230 nM, the IC50 (H187) was 230 nM and the IC50 (H209) was 240 nM. The IC50 (H1417) was 540 nM, the IC50 (H1975) was 250 nM and the IC50 (H23) was 150 nM. For the same compound, the IC50 (SEM cells) was 25 nM, the IC50 (Reh [3]) was 50 nM and the IC50 (Reh [4]) was 41 nM. The IC50 (KE37 [5]) was 200 nM, the IC50 (KE37 [6]) was 180 nM and the IC50 (HPB) was 140 nM. The IC50 (SKOV3 [7]) was 250 nM, the IC50 (SKOV3 [8]) was 610 nM and the IC50 (Caov3 [9]) was 250 nM. The IC50 (Caov3 [10]) was 270 nM, the IC50 (A2780 [11]) was 100 nM and the IC50 (A2780 [12]) was 270 nM. It also gave an IC50 (Z138) of 250 nM, an IC50 (JeKo1) of 75 nM and an IC50 (JVM2) of 200 nM. It also gave an IC50 (Kelly) of 80 nM, an IC50 (232-B4) of 200 nM and an IC50 (EHEB) of 200 nM.
